Values joined by “and” are separate entries in the source; they are usually repeats but may differ in a detail not shown here. Equal values may be shown once. “Also recorded” adds a separate entry of the source.
Key:
[1] = target: T1, HIS-CRTC2-S171A proteins (Homo sapiens, UniProt Q53ET0, S171A); assay: Surface plasmon resonance, immobilized HIS-CRTC2-S171A; assay type: binding
T1 construct: made in house; host or cells: E. coli

[2] = target: T2, CREB-CRTC2 interaction (Homo sapiens, UniProt P16220); assay: CREB–CRTC2 mammalian two-hybrid assay (GAL4-Luc reporter); assay type: cell-based; parameters: CREB/CRTC2 -luc activity %: concentration or dose not given beside the values; conditions: for relative Gal4-luc activity %: Fig 3b replicates
T2 construct: expressed in transfected cells; host or cells: HEK293T

[3] = tested on: mouse Per2 promoter; assay: Per2-Luc reporter (CREB/CRTC2-mediated transcription of PER2); assay type: cell-based; conditions: preliminary research
Experimental: SREBP1 (m-SREBP1) and fat acid synthase (FASN) in glucagon- insulin treated cells, […]
mTORC1 activity at the same time. mTORC1 h as been reported to enh ance SREBP1c mediated lipogenesis m ainly by increasing the mat uration of SREBP1c prot eins (2015, The CREB coactivator CRTC2 controls hepatic lipid metabolism by regulating S REBP1, Nature, […]
Aug 13;524(7564):243- 6.). […]
hyperactivation caused by liver specific TSC1 deletion is insufficient to induce SREBP1c activation and de novo lipogenesis in the liver of high fat diet fed mice (Akt stimulates hepatic SREBP1c and lipogenesis through parallel mTORC1- dependent and independent pathways. Cell Metabolism . 2011. 14.1: 21- 32). Considered the requirement of TSC1 for PER2 to inhibit mTORC1 activity, the reduction of PER2 by APC may not be sufficient to induce SREBP1c activati on. Moreover, ou r dat a su ggest that APC redu ces the trans cription of SREBP1c in vivo (Figures 5b and 5g) , which would result in the decrease of whole SREBP1c protein levels and overcom e the effect on lipogenesis caused by APC activation of mTORC1. […]
Data are repres ented as mean ± SEM (n=4). *, p < 0.05; **, p< 0.01. pval ues wer e determined by one-way ANOVA followed Dunnett’s multiple comparisons test (Left).
The over-expr essed proteins FLAG- CREB and HA-CRTC2-171A were detected in the lysates of the luciferase reporter assay by immunoblotting (Right). […]

[4] = tested on: primary hepatocytes; assay: MTT assay, primary hepatocytes; assay type: cell-based, mouse; conditions: for Relative MTT absortance-48H, mean: n=5 (0 μM = 100); for Relative MTT absortance-48H: Supp. fig.3b, individual replicates
Experimental: Primary hepatocytes were exposed to APC at indicated concentrations for 48-h, then co-incubated with methyl thiazolyl tetrazolium (0.5 mg/mL in PBS, Sigma) solution for 5-h. After removing the solution, the purple crystals were dissolved using DMSO, and the absorbance was measured at 550 nm.

[5] = target: T3, CREB / CRTC3 interaction (Homo sapiens, UniProt P16220); assay: Co-immunoprecipitation of GFP-CRTC3 by MYC-CREB, HEK293T; assay type: cell-based; conditions: overexpression HEK293T cells, APC 10 μM
T3 construct: expressed in transfected cells; host or cells: HEK293T
Experimental: 1 Supplementary Figure 2.
2 a) Immunoblot of HA-P300 recovered from HEK293T cell lysate using GST-CREB beads. APC
3 (10 μM) was incubated with cells for 1-h before FKS (10 nM) stimulation and was included in the
4 following pull-down mixtures (n=3). One of two independent experiments presented here.
5 b) Immunoblot for recovered GFP-CRTC1 or (c) GFP-CRTC3 immunoprecipitated by MYC-CREB
6 from overexpression HEK293T cell line. APC (10 μM) was incubated with cells for 1-h before FKS
7 (10 nM) stimulation and was included in the following pull-down mixtures. One of two independent
8 experiments presented here.
9 d) SPR sonogram traces of APC binding with HIS-CREB proteins immobilized to NTA-chip. The
10 concentration series of APC was as indicated.
11 e) SPR sonogram traces of APC flowing through HIS-CRTC2-S171A proteins immobilized on
12 NTA-chip. The concentration of APC was as indicated.
13 f) The luciferase enzymatic activity of HEK293T incubated with APC. Cells over-expressed
14 luciferase CRE-Luc reporter and were stimulated by FSK (10 nM) for 5-h before lysis, which was
15 then incubated with APC (concentration indicated) for 30 min before luciferase activity determination
16 (n=3 per treatment). Data are represented as mean ± SEM. *, p < 0.05; **, p < 0.01; p values were
17 determined by one-way ANOVA followed Dunnett’s multiple comparisons test. […]

T2 sequence (P16220 whole entry, the tested form may be a part): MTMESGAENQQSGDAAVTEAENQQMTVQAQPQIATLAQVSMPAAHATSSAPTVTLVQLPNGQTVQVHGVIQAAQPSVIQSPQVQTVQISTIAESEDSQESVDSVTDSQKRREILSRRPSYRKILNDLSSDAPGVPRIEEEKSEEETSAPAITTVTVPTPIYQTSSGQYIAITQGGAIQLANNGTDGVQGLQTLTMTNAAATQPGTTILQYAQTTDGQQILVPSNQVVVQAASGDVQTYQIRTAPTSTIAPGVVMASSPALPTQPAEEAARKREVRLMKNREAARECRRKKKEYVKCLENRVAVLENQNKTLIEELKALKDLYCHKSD
T1 sequence (Q53ET0 whole entry S171A): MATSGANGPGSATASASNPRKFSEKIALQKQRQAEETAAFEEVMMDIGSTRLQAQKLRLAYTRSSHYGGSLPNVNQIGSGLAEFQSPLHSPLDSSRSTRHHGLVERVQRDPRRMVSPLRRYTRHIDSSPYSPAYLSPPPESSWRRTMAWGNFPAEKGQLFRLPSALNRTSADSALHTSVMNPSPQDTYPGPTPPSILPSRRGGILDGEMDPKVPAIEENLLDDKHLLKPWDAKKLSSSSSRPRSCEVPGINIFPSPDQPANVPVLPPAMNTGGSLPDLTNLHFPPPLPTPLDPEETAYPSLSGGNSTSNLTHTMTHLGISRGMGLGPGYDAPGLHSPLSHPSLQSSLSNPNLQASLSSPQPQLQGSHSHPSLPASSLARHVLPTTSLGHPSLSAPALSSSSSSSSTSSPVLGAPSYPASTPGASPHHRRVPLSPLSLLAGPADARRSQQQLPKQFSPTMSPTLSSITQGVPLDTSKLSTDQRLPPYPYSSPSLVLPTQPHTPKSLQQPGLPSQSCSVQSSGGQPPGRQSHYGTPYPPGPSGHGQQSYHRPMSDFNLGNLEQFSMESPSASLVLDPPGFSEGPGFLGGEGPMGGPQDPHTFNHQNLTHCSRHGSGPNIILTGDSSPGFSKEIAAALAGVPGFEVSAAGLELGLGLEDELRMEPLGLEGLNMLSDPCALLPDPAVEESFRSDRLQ
T3 sequence (P16220 whole entry): as the sequence (P16220 whole entry, the tested form may be a part) above

CC(C)=CCc1cc(C=CC(=O)O)cc(CC=C(C)C)c1O [APC, 3,5-diprenyl-4-hydroxycinnamic acid]
affinity to CRTC2 (SPR) [1]: no affinity
remaining activity at 1000 µM ([2]; 16 h, Figure 9b, Log10(M) -3, single replicates, read-out: Gal4-LUC reporter activiry, %): 0.439%
remaining activity at 100 µM ([2]; 16 h, Figure 9b, Log10(M) -4, single replicates, read-out: Gal4-LUC reporter activiry, %): 0.257%
remaining activity at 1 µM ([2]; 16 h, Figure 9b, Log10(M) -6, single replicates, read-out: Gal4-LUC reporter activiry, %): 36.2%
remaining activity at 0.1 µM ([2]; 16 h, Figure 9b, Log10(M) -7, single replicates, read-out: Gal4-LUC reporter activiry, %): 71.6%
remaining activity at 0.01 µM ([2]; 16 h, Figure 9b, Log10(M) -8, single replicates, read-out: Gal4-LUC reporter activiry, %): 92.8%
remaining activity at 0.001 µM ([2]; 16 h, Figure 9b, Log10(M) -9, single replicates, read-out: Gal4-LUC reporter activiry, %): 74.9%
remaining activity at 0.0001 µM ([2]; 16 h, Figure 9b, Log10(M) -10, single replicates, read-out: Gal4-LUC reporter activiry, %): 102%
relative Gal4-luc activity % ([2]; APC Log10(M) -3): 0.3266% and 0.2637% and 0.3128%
relative Gal4-luc activity % ([2]; APC Log10(M) -4): 10.2018% and 10.3248% and 10.277%
relative Gal4-luc activity % ([2]; APC Log10(M) -5): 61.3194% and 69.9978% and 76.9726%
relative Gal4-luc activity % ([2]; APC Log10(M) -6): 65.67% and 82.3932% and 92.7658%
relative Gal4-luc activity % ([2]; APC Log10(M) -7): 64.5839% and 85.9224% and 107.618%
relative Gal4-luc activity % ([2]; APC Log10(M) -8): 99.4977% and 99.5841% and 100.918%
relative Gal4-luc activity % ([2]; APC Log10(M) -9): 107.021% and 111.522% and 103.779%
Relative Gal4-LUC activity, single replicates ([2]; Figure 1f, CREB-CRTC2 two-hybrid assay, DMSO control about 100, listed as P3): 21.4874 and 38.8421 and 27.0437
reporter activity of CREB–CRTC2 two-hybrid assay ([2]; HEK293T, isolated compound 25 μM, listed as P3): significantly inhibited; also recorded: most potent
Related Gal4-luc % ([2]; Supp. Fig.10 a, individual replicates, Ctrl about 97): 42.290% and 38.150% and 46.110% and 51.003%
Related Gal4-luc %, group mean (Test details, Mean 2) ([2]; Supp. Fig.10 a, mean of n=4, CTRL mean 96.58): 44.39%
CREB/CRTC2 -luc activity % ([2]; Supp. Fig.10 b, individual replicates, Ctrl about 100): 51.481% and 56.411% and 65.126%
IC50 ([2]; cell-based two-hybrid assay, HEK293T cells, read-out: IC50 for disrupting CREB–CRTC2 interaction): ~24.5 µM and 24.5 µM
CREB/CRTC2-mediated transcription of PER2 [3]: reduced
Relative MTT absortance-48H, mean ([4]; APC 1 μM): 102
Relative MTT absortance-48H, mean ([4]; APC 5 μM): 103.2
Relative MTT absortance-48H, mean ([4]; APC 25 μM): 101.9
Relative MTT absortance-48H, mean ([4]; APC 100 μM): 105.7
hepatocyte viability ([4]; APC up to 100 μM, 48-h): did not impair hepatocyte viability
Relative MTT absortance-48H ([4]; APC 1 uM): 101.3514 and 105.1051 and 97.5976 and 102.8529 (2×)
Relative MTT absortance-48H ([4]; APC 5 uM): 99.8499 and 98.3484 and 103.6036 and 105.1051 and 108.8589
Relative MTT absortance-48H ([4]; APC 25 uM): 96.6066 and 104.3544 and 100.6006 and 99.6096 and 108.1081
Relative MTT absortance-48H ([4]; APC 100 uM): 107.3574 and 101.1111 and 106.6066 and 109.6096 and 103.6036
interaction of CREB and CRTC3 [5]: attenuated

Reference: article PMC8752738, “A propolis-derived small molecule ameliorates metabolic syndrome in obese mice by targeting the CREB/CRTC2 transcriptional complex” (Nature Communications, 2022)
